Key:
HCV Replicon 1b = assay: HCV inhibition assay, HCV replicon 1b (Clone A or ET-lunet cells; RT-PCR or luciferase reporter); type: cell-based; settings: Hepatitis C virus, 96 h, HCV replicon 1b; 4 days incubation; read-out: Replicon 1b potency EC90
Outline: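 Clone A (1500/well) or ET-lunet (3000/well) replicon cells treated with serially diluted compounds (0.5% DMSO, no G418) for 4 days at 37 °C. HCV RNA measured by one-step RT-PCR normalized to rRNA (ΔΔCt) or by luciferase luminescence versus DMSO controls; EC50/EC90 by curve fitting.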

[1] = Cell cytotoxicity assay (MTS), CC90 as reported in Table 1, cell line not stated; type: cell-based; settings: human; cell line not given
Outline: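 Compounds, serially diluted from 100 μM, were incubated 8 days at 37° C with Huh7, HepG2 or BxPC3 (2×10^3 cells/well) or CEM (5×10^3 cells/well). Viability was read by MTS, 2 h, absorbance 490 nm. CC90 (90% inhibition) was taken against untreated cells.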

CC(C)C[C@H]1CN(Cc2ccc(F)c(Cl)c2)[C@@H](CC(C)C)C(=O)N1 [Compound 227, (3S,6S)-4-(3-Chloro-4-fluoro-benzyl)-3,6-diisobutyl-piperazin-2-one]
EC90 (HCV Replicon 1b): > 10000 nM | CC90 at 8 days [1]: > 10000 nM

CC(C)C[C@H]1CN(Cc2ccc(OC(F)(F)F)cc2)[C@@H](CC(C)C)C(=O)N1 [Compound 228, (3S,6S)-3,6-Diisobutyl-4-(4-trifluoromethoxy-benzyl)-piperazin-2-one]
EC90 (HCV Replicon 1b): 3260 nM | CC90 at 8 days [1]: > 10000 nM

CC(C)C[C@H]1CN(Cc2cc(C(F)(F)F)ccc2Cl)[C@@H](CC(C)C)C(=O)N1 [Compound 229, (3S,6S)-4-(2-Chloro-5-trifluoromethyl-benzyl)-3,6-diisobutyl-piperazin-2-one]
EC90 (HCV Replicon 1b): 5120 nM | CC90 at 8 days [1]: > 10000 nM

CCC[C@H]1CN(C(=O)[C@@H]2C[C@H]2c2ccccc2)[C@@H](CC(C)C)C(=O)N1 [Compound 230, (3S,6S)-3-isobutyl-4-((1R,2R)-2-phenylcyclopropanecarbonyl)-6-propylpiperazin-2-one]
EC90 (HCV Replicon 1b): 570 nM | CC90 at 8 days [1]: > 10000 nM

CC(C)C[C@H]1C(=O)N[C@@H](C2CCCCC2)CN1C(=O)[C@@H]1C[C@H]1c1ccccc1 [Compound 231, (3S,6S)-6-cyclohexyl-3-isobutyl-4-((1R,2R)-2-phenylcyclopropanecarbonyl)-piperazin-2-one]
EC90 (HCV Replicon 1b): 930 nM | CC90 at 8 days [1]: > 10000 nM

CC(C)C[C@H]1C(=O)N[C@@H](C2CCCC2)CN1C(=O)[C@@H]1C[C@H]1c1ccccc1 [Compound 232, (3S,6S)-6-cyclopentyl-3-isobutyl-4-((1R,2R)-2-phenylcyclopropanecarbonyl)-piperazin-2-one]
EC90 (HCV Replicon 1b): 690 nM | CC90 at 8 days [1]: > 10000 nM

CC(C)C[C@H]1C(=O)N[C@@H](C(C)C)CN1C(=O)[C@@H]1C[C@H]1c1ccccc1 [Compound 233, (3S,6S)-3-isobutyl-6-isopropyl-4-((1R,2R)-2-phenylcyclopropanecarbonyl)piperazin-2-one]
EC90 (HCV Replicon 1b): 930 nM | CC90 at 8 days [1]: > 10000 nM

CC(C)C[C@H]1C(=O)N[C@@H](c2ccccc2)CN1C(=O)[C@@H]1C[C@H]1c1ccccc1 [Compound 234, (3S,6S)-3-isobutyl-6-phenyl-4-((1R,2R)-2-phenylcyclopropanecarbonyl)piperazin-2-one]
EC90 (HCV Replicon 1b): 300 nM | CC90 at 8 days [1]: > 10000 nM

CC(C)C[C@H]1C(=O)N[C@@H](C2CC2)CN1C(=O)[C@@H]1C[C@H]1c1ccccc1 [Compound 235, (3S,6S)-6-cyclopropyl-3-isobutyl-4-((1R,2R)-2-phenylcyclopropanecarbonyl)-piperazin-2-one]
EC90 (HCV Replicon 1b): 4200 nM | CC90 at 8 days [1]: > 10000 nM

CC(C)C[C@H]1CN(C(=O)[C@@H]2C[C@H]2c2ccc(F)cc2)[C@@H](CC(C)C)C(=O)N1 [Compound 236, (3S,6S)-4-[(1R,2R)-2-(4-Fluoro-phenyl)-cyclopropanecarbonyl]-3,6-diisobutyl-piperazin-2-one]
EC90 (HCV Replicon 1b): 80 nM | CC90 at 8 days [1]: > 10000 nM

CC(C)C[C@H]1CN(C(=O)[C@@H]2C[C@H]2c2ccc(Cl)cc2)[C@@H](CC(C)C)C(=O)N1 [Compound 237, (3S,6S)-4-[(1R,2R)-2-(4-Chloro-phenyl)-cyclopropanecarbonyl]-3,6-diisobutyl-piperazin-2-one]
EC90 (HCV Replicon 1b): 270 nM | CC90 at 8 days [1]: > 10000 nM

CC(C)C[C@H]1CN(C(=O)[C@@H]2C[C@H]2c2ccc(F)c(F)c2)[C@@H](CC(C)C)C(=O)N1 [Compound 238, (3S,6S)-4-[(1R,2R)-2-(3,4-Difluoro-phenyl)-cyclopropanecarbonyl]-3,6-diisobutyl-piperazin-2-one]
EC90 (HCV Replicon 1b): 590 nM | CC90 at 8 days [1]: > 10000 nM

COc1ccc([C@@H]2C[C@H]2C(=O)N2C[C@H](CC(C)C)NC(=O)[C@@H]2CC(C)C)cc1 [Compound 239, (3S,6S)-3,6-Diisobutyl-4-[(1R,2R)-2-(4-methoxy-phenyl)-cyclopropanecarbonyl]-piperazin-2-one]
EC90 (HCV Replicon 1b): 960 nM | CC90 at 8 days [1]: > 10000 nM

CCC[C@H]1CN(C(=O)[C@@H]2C[C@H]2c2ccc(F)cc2)[C@@H](CC(C)C)C(=O)N1 [Compound 240, (3S,6S)-4-[(1R,2R)-2-(4-Fluoro-phenyl)-cyclopropanecarbonyl]-3-isobutyl-6-propyl-piperazin-2-one]
EC90 (HCV Replicon 1b): 100 nM | CC90 at 8 days [1]: > 10000 nM

CC(C)C[C@H]1C(=O)N[C@@H](C2CCCCC2)CN1C(=O)[C@@H]1C[C@H]1c1ccc(F)cc1 [Compound 241, (3S,6S)-6-Cyclohexyl-4-[(1R,2R)-2-(4-fluoro-phenyl)-cyclopropanecarbonyl]-3-isobutyl-piperazin-2-one]
EC90 (HCV Replicon 1b): 150 nM | CC90 at 8 days [1]: > 10000 nM

CC(C)C[C@H]1C(=O)N[C@@H](C2CCCC2)CN1C(=O)[C@@H]1C[C@H]1c1ccc(F)cc1 [Compound 242, (3S,6S)-6-Cyclopentyl-4-[(1R,2R)-2-(4-fluoro-phenyl)-cyclopropanecarbonyl]-3-isobutyl-piperazin-2-one]
EC90 (HCV Replicon 1b): 60 nM | CC90 at 8 days [1]: > 10000 nM

CC(C)C[C@H]1C(=O)N[C@@H](CC2CC2)CN1C(=O)[C@@H]1C[C@H]1c1ccc(Cl)cc1 [Compound 243, (3S,6S)-4-[(1R,2R)-2-(4-Chloro-phenyl)-cyclopropanecarbonyl]-6-cyclopropylmethyl-3-isobutyl-piperazin-2-one]
EC90 (HCV Replicon 1b): 430 nM | CC90 at 8 days [1]: > 10000 nM

CCC[C@H]1CN(C(=O)[C@@H]2C[C@H]2c2ccc(Cl)cc2)[C@@H](CC(C)C)C(=O)N1 [Compound 244, (3S,6S)-4-[(1R,2R)-2-(4-Chloro-phenyl)-cyclopropanecarbonyl]-3-isobutyl-6-propyl-piperazin-2-one]
EC90 (HCV Replicon 1b): 70 nM | CC90 at 8 days [1]: > 10000 nM

CC(C)C[C@H]1C(=O)N[C@@H](C2CCCCC2)CN1C(=O)[C@@H]1C[C@H]1c1ccc(Cl)cc1 [Compound 245, (3S,6S)-4-[(1R,2R)-2-(4-Chloro-phenyl)-cyclopropanecarbonyl]-6-cyclohexyl-3-isobutyl-piperazin-2-one]
EC90 (HCV Replicon 1b): 620 nM | CC90 at 8 days [1]: > 10000 nM

CC(C)C[C@H]1C(=O)N[C@@H](C2CCCC2)CN1C(=O)[C@@H]1C[C@H]1c1ccc(Cl)cc1 [Compound 246, (3S,6S)-4-[(1R,2R)-2-(4-Chloro-phenyl)-cyclopropanecarbonyl]-6-cyclopentyl-3-isobutyl-piperazin-2-one]
EC90 (HCV Replicon 1b): 200 nM | CC90 at 8 days [1]: > 10000 nM

CC(C)C[C@H]1C(=O)N[C@@H](c2ccccc2)CN1C(=O)[C@@H]1C[C@H]1c1ccc(F)cc1 [Compound 247, (3S,6S)-4-[(1R,2R)-2-(4-Fluoro-phenyl)-cyclopropanecarbonyl]-3-isobutyl-6-phenyl-piperazin-2-one]
EC90 (HCV Replicon 1b): 50 nM | CC90 at 8 days [1]: > 10000 nM

CC(C)C[C@H]1C(=O)N[C@@H](c2ccccc2)CN1C(=O)[C@@H]1C[C@H]1c1ccc(Cl)cc1 [Compound 248, (3S,6S)-4-[(1R,2R)-2-(4-Chloro-phenyl)-cyclopropanecarbonyl]-3-isobutyl-6-phenyl-piperazin-2-one]
EC90 (HCV Replicon 1b): 160 nM | CC90 at 8 days [1]: > 10000 nM

CC(C)C[C@H]1CN(C(=O)[C@@H]2C[C@H]2c2ccc(C(C)(C)C)cc2)[C@@H](CC(C)C)C(=O)N1 [Compound 249, (3S,6S)-4-[(1R,2R)-2-(4-tert-Butyl-phenyl)-cyclopropanecarbonyl]-3,6-diisobutyl-piperazin-2-one]
EC90 (HCV Replicon 1b): 750 nM | CC90 at 8 days [1]: > 10000 nM
